The values below are quoted from earlier work in US7655374B2, “Fixing liquid, toner fixing method and apparatus, and image forming method and apparatus” (Ricoh Company, Ltd., priority 2005, dated 2010).

For this data set the following is noted: acute oral toxicity; species not given.

Regarding `CCCCCCCCCCCC(=O)OCC` [ethyl laurate], the LD50 is 3000 mg/kg.

Turning to `CC(C)COC(=O)CCCCC(=O)OCC(C)C` [diisobutyl adipate], the median lethal dose (LD50) was 12300 mg/kg. Consider `CCCCOC(=O)CCCCCCCCC(=O)OCCCC` [dibutyl sebacate], for which the median lethal dose (LD50) was 14900 mg/kg. In the case of `CCCCCCCCCCCC` [n-dodecane], the median lethal dose (LD50) was greater than 5000 mg/kg.

Take diethoxyethyl sebacate: the LD50 was greater than 5000 mg/kg.

For orientation: LD50 means the dose at which mortality reaches 50%.
